Several values for one entry are separate records, joined by “and”; a condition that tells them apart may be missing. Equal values may be shown once. Read-outs that look alike come from different tables or passages of the source.
Experiments:
BRISC = target: T1, BRISC (Homo sapiens, UniProt P46736+Q15018+Q9NXR7); experiment: BRISC DUB activity assay (IQF K63-linked diubiquitin); format: biochemical
T1 construct: made in house; host or cells: Spodoptera frugiperda (Sf9) insect cells, MultiBac
Procedure, shortened: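 50 mM HEPES pH 7.0, 100 mM NaCl, 0.1 mg/ml BSA, 1 mM DTT, 0.03% Brij-35; BRISC WT/mutants 1 nM final; IQF K63 diUb 50 nM. Fluorescence read ex 544/em 575 nm each min, 30 min, 30 °C. V0 = progress-curve slope; IC50 by variable-slope dose–response.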

[1] = system: NF-κB pathway in THP-1 cells; experiment: THP-1 NF-κB pathway SEAP reporter, lipopolysaccharide stimulation; format: cell-based, human; conditions: LPS + compound, three replicates
Method: (§1) THP-1 in vitro experiments
(§2) THP-1-DualTM cells (InvivoGen), derived from a human monocytic cell line, isolated from a patient with acute monocytic leukaemia, were cultured as per manufacturer’s guidance. Cells were seeded at 1x10^6 cells/mL in RPMI1640 media containing 10% fetal bovine serum (FBS), 1% penicillin-streptomycin (PS) (Gibco Laboratories) with DMSO (0.1%) (control) or in media containing JMS-175- […]
(§3) ng/mL) (Merck Life Science), ODN 2216 (1 µM) (Miltenyi Biotec), or Poly:IC (1 µg/mL) (InvivoGen).
(§4) Tofacitinib (Cambridge Biosciences) at 0.4 µM was used for comparison against a known JAK inhibitor.
(§5) Cells were centrifuged at 300 g for 5 minutes. Supernatant was removed and subjected to simultaneous study of the NF -κB pathway, by monitoring the activity of secreted alkaline phosphatase reporter (SEAP), and the IRF pathway, by assessing the activity o f a secreted Lucia luciferase using QUANTI - Blue ™ Solution and QUANTI -Luc™ 4 Lucia/Gaussia (InvivoGen), respectively, as per manufacturer’s instructions. Pelleted cells were used for FACS analysis using IFNα/β R1 APC-conjugated antibody or isotype control (Biotechne, FAB245A and IC002A), or unstained staining procedure with and without Zombie GreenTM (Biolegend). Samples were analysed using CytoFlex LX (Beckman) (50,000 live cells per condition). Median fluorescence intensity for APC channel gated on single cell live cells was analysed and compared as a percentage to control (no stimulation condition). […]

THP-1 cells = experiment: THP-1 live cell percentage; format: cell-based; conditions: THP-1, hIFNα2 25 ng/mL, 4 μM compound, 16 h
Method: as §1, §2, §3, §4, §5

[2] = system: IFNAR1 surface levels in THP-1 cells; experiment: THP-1 IFNAR1 surface levels (FACS); format: cell-based, human
Method: as §1, §2, §3, §4, §5

[3] = system: CXCL10 secretion in healthy PBMCs; experiment: Healthy PBMC CXCL10 ELISA, IFNα2-stimulated; format: cell-based, human
Method: PBMCs in vitro experiments
Peripheral blood mononuclear cells (PBMCs) from healthy and SSc donors were separated using density gradient method (Leucosep™, Greiner Bio-One International) from EDTA anticoagulated peripheral blood; isolated cells were washed twice by PBS. PBMCs were then incubated in RPMI1640 […]
For healthy PBMCs, cells were stimulated with 20 ng/mL of IFN (+/- compounds or DMSO). For SSc PBMCs, cells were in basal conditions with no additional IFN stimulation. Cells were centrifuged at 300 g for 10 minutes. Supernatant was removed and subjected to R&D Systems DY266 Human CXCL10/IP-10 DuoSet ELISA (Biotechne) in duplicates, according to manufacturer’s guidance. Concentration of CXCL10 was determined according to a 4-parameter

O=C(NC1C2CNCC21)c1nn(C(=O)c2c(Cl)cccc2Cl)cc1NC(=O)c1c(Cl)cccc1Cl (stereo not drawn) [FX-171-C]
IC50 (BRISC; 32-point dose-response, biphasic fit, read-out: IC50(1), biphasic curve): 7200 nM | IC50 (BRISC; 32-point dose-response, biphasic fit, read-out: IC50(2), biphasic curve): 149 nM | remaining activity at 0.35 µM (BRISC; BRISC WT, FX-171-C 0.35 μM, read-out: Normalised V0): 54.2% | remaining activity at 6.25 µM (BRISC; BRISC WT, FX-171-C 6.25 μM, read-out: Normalised V0): 13% | IC50 (BRISC; FX-171-C IC50, BRISC WT, mutant panel (Extended Data Fig. 7c)): 600 nM | Normalised V0 (BRISC; Fig. 1g, BRISC, FX-171-C 0.0599997 μM): 1.019 | Normalised V0 (BRISC; Fig. 1g, BRISC, FX-171-C 0.0799994 μM): 0.9329 and 1.215 and 0.984 | Normalised V0 (BRISC; Fig. 1g, BRISC, FX-171-C 0.119998 μM): 0.8991 and 1.297 and 1.1131 | Normalised V0 (BRISC; Fig. 1g, BRISC, FX-171-C 0.199996 μM): 0.9109 and 1.1 and 0.9714 | Normalised V0 (BRISC; Fig. 1g, BRISC, FX-171-C 0.499975 μM): 0.8337 and 0.8541 and 0.839 | Normalised V0 (BRISC; Fig. 1g, BRISC, FX-171-C 0.799936 μM): 0.8201 and 0.7671 and 0.7222 | Normalised V0 (BRISC; Fig. 1g, BRISC, FX-171-C 1.25984 μM): 0.7744 and 0.5965 and 0.5179 | Normalised V0 (BRISC; Fig. 1g, BRISC, FX-171-C 1.9996 μM): 0.7381 and 0.4197 and 0.4126 | Normalised V0 (BRISC; Fig. 1g, BRISC, FX-171-C 3.159 μM): 0.4028 and 0.2971 and 0.3289 | Normalised V0 (BRISC; Fig. 1g, BRISC, FX-171-C 5.19739 μM): 0.6152 and 0.3188 and 0.3118 | remaining activity at 0.0599997 µM (BRISC; HsBRISC, FX-171-C 0.0599997 μM, read-out: Normalised V0): 102% | remaining activity at 0.199996 µM (BRISC; HsBRISC, FX-171-C 0.199996 μM, read-out: Normalised V0): 91.1% | remaining activity at 0.499975 µM (BRISC; HsBRISC, FX-171-C 0.499975 μM, read-out: Normalised V0): 83.4% | remaining activity at 0.799937 µM (BRISC; HsBRISC, FX-171-C 0.799937 μM, read-out: Normalised V0): 82% | remaining activity at 3.159 µM (BRISC; HsBRISC, FX-171-C 3.159 μM, read-out: Normalised V0): 40.3% | remaining activity at 19.96 µM (BRISC; HsBRISC, FX-171-C 19.96 μM, read-out: Normalised V0): 18.8% | remaining activity at 31.4999 µM (BRISC; HsBRISC, FX-171-C 31.4999 μM, read-out: Normalised V0): 18.9% | remaining activity at 79.7601 µM (BRISC; HsBRISC, FX-171-C 79.7601 μM, read-out: Normalised V0): 22.3% | remaining activity at 125.99 µM (BRISC; HsBRISC, FX-171-C 125.99 μM, read-out: Normalised V0): 16.2% | IC50 (BRISC; IQF K63-linked diubiquitin substrate, read-out: IC50, inhibition of BRISC DUB activity): 1400 nM | Normalised V0 (BRISC; [Inhibitor] 0.013 μM, replicate columns): 0.9661 and 1.259 and 1.028 and 1.106 and 0.9509 and 0.8874 | Normalised V0 (BRISC; [Inhibitor] 0.02 μM, replicate columns): 0.8164 and 1.359 and 1.027 | Normalised V0 (BRISC; [Inhibitor] 0.0399999 μM, replicate columns): 0.8327 and 1.212 and 1.032 | Normalised V0 (BRISC; [Inhibitor] 0.0599997 μM, replicate columns): 1.019 and 1.179 and 1.007 | Normalised V0 (BRISC; [Inhibitor] 0.0799994 μM, replicate columns): 0.9329 and 1.215 and 0.984 | Normalised V0 (BRISC; [Inhibitor] 0.119998 μM, replicate columns): 0.8991 and 1.297 and 1.1131 | Normalised V0 (BRISC; [Inhibitor] 0.199996 μM, replicate columns): 0.9109 and 1.1 and 0.9714 | Normalised V0 (BRISC; [Inhibitor] 0.499975 μM, replicate columns): 0.8337 and 0.8541 and 0.839 | Normalised V0 (BRISC; [Inhibitor] 0.799936 μM, replicate columns): 0.8201 and 0.7671 and 0.7222 | Normalised V0 (BRISC; [Inhibitor] 1.25984 μM, replicate columns): 0.7744 and 0.5965 and 0.5179 | Normalised V0 (BRISC; [Inhibitor] 1.9996 μM, replicate columns): 0.7381 and 0.4197 and 0.4126 | Normalised V0 (BRISC; [Inhibitor] 3.159 μM, replicate columns): 0.4028 and 0.2971 and 0.3289 | Normalised V0 (BRISC; [Inhibitor] 5.19739 μM, replicate columns): 0.6152 and 0.3188 and 0.3118 | Normalised V0 (BRISC; [Inhibitor] 7.99364 μM, replicate columns): 0.4919 and 0.2336 and 0.2963 | Normalised V0 (BRISC; [Inhibitor] 12.7839 μM, replicate columns): 0.5596 and 0.3112 and 0.2492 | Normalised V0 (BRISC; [Inhibitor] 19.96 μM, replicate columns): 0.1876 and 0.174 and 0.161 | Normalised V0 (BRISC; [Inhibitor] 31.4999 μM, replicate columns): 0.1887 and 0.2421 and 0.2131 | Normalised V0 (BRISC; [Inhibitor] 50.147 μM, replicate columns): 0.05691 and 0.1395 and 0.2567 | Normalised V0 (BRISC; [Inhibitor] 79.7601 μM, replicate columns): 0.2227 and 0.2164 and 0.1439 | Normalised V0 (BRISC; [Inhibitor] 125.99 μM, replicate columns): 0.1622 and 0.2082 and 0.2077 | Normalised V0 (BRISC; [Inhibitor] 199.922 μM, replicate columns): 0.03119 and 0.1486 and 0.1232 | potency ranking over BRISC orthologs (BRISC; human vs mouse and zebrafish BRISC): highest potency toward human BRISC over mouse and zebrafish BRISC | Normalised velocity (V0) (BRISC; inhibitor 0.000794328 μM): 1 | Normalised velocity (V0) (BRISC; inhibitor 0.00125892 μM): 0.9709 and 1.087 | Normalised velocity (V0) (BRISC; inhibitor 0.00199526 μM): 0.9893 and 1.074 | Normalised velocity (V0) (BRISC; inhibitor 0.00316228 μM): 1.07 and 1.182 | Normalised velocity (V0) (BRISC; inhibitor 0.00501187 μM): 1.042 and 1.106 | Normalised velocity (V0) (BRISC; inhibitor 0.00794328 μM): 1.04 and 1.13 | Normalised velocity (V0) (BRISC; inhibitor 0.0125893 μM): 0.9855 and 1.097 | Normalised velocity (V0) (BRISC; inhibitor 0.0199526 μM): 1.04 and 1.062 | Normalised velocity (V0) (BRISC; inhibitor 0.0316228 μM): 0.9173 and 1.065 | Normalised velocity (V0) (BRISC; inhibitor 0.0501187 μM): 0.915 and 1.002 | Normalised velocity (V0) (BRISC; inhibitor 0.0794328 μM): 0.8247 and 0.8903 | Normalised velocity (V0) (BRISC; inhibitor 0.125893 μM): 0.6057 and 0.745 | Normalised velocity (V0) (BRISC; inhibitor 0.199526 μM): 0.5727 and 0.6444 | Normalised velocity (V0) (BRISC; inhibitor 0.316228 μM): 0.4326 and 0.4719 | Normalised velocity (V0) (BRISC; inhibitor 0.398107 μM): 0.425 and 0.486 | Normalised velocity (V0) (BRISC; inhibitor 0.630957 μM): 0.3369 and 0.3696 | Normalised velocity (V0) (BRISC; inhibitor 1 μM): 0.2871 and 0.3028 | Normalised velocity (V0) (BRISC; inhibitor 1.58489 μM): 0.2427 and 0.2962 | Normalised velocity (V0) (BRISC; inhibitor 2.51189 μM): 0.2711 and 0.2368 | Normalised velocity (V0) (BRISC; inhibitor 3.98107 μM): 0.2213 and 0.2236 | Normalised velocity (V0) (BRISC; inhibitor 6.30957 μM): 0.121 and 0.1898 | Normalised velocity (V0) (BRISC; inhibitor 10 μM): 0.08882 and 0.07343 | Normalised velocity (V0) (BRISC; inhibitor 15.8489 μM): 0.08806 and 0.08498 | Normalised velocity (V0) (BRISC; inhibitor 25.1189 μM): 0 | Normalised velocity (V0) (BRISC; inhibitor 39.8107 μM): 0 | Normalised velocity (V0) (BRISC; inhibitor 63.0957 μM): 0 | Normalised velocity (V0) (BRISC; inhibitor 100 μM): 0 | NF-κB SEAP reporter signal [1]: 1.133 and 1.071 and 1.161 | percentage of live cells (THP-1 cells): 97.99% | IFNAR1 surface levels (Fig. 5h) ([2]; IFN + compound, No IFN = 100): 56.2651 and 56.964 and 56.0526 | IFNAR1 surface levels ([2]; THP-1, hIFNα2 25 ng/ml, 4 μM, 16 h): reduction in IFNAR1 surface levels | CXCL10, healthy donor PBMCs (Fig. 6c) ([3]; Healthy donor HC1): 77.343 | CXCL10, healthy donor PBMCs (Fig. 6c) ([3]; Healthy donor HC2): 68.1378 | CXCL10, healthy donor PBMCs (Fig. 6c) ([3]; Healthy donor HC3): 64.5563

— paper PMC7617869, “Molecular glues that inhibit deubiquitylase activity and inflammatory signaling” (Nature Structural & Molecular Biology, 2025)
